According to patent publication US20230027066A1 (Urovant Sciences GmbH, priority 2019, published 2023):

Tests used:
Type in all cases: in vivo, human
[1] = test system: men and women with overactive bladder; assay: Phase 3 study (75 mg), patient-reported outcomes (OAB-q LF, PGI); parameters: OAB-q sleep score, improvement greater than placebo / HRQL Total Score, improvement greater than placebo / OAB-q HRQL Total Score, Active - Placebo LS Means Difference: scale not given here
Text: Patients completed paper questionnaires at the site at the start of each required study visit to assess patient-perceived symptom relief, symptom bother, and health-related quality of life at the study visits. […] These included the following questionnaires:
1. Global Impression Items include Patient Global Impression of Severity (PGI-Severity), Patient Global Impression of Control (PGI-Control), Patient Global Impression of Frequency (PGI-Frequency), Patient Global Impression of Leakage (PGI-Leakage), and Patient Global Impression of Change (PGI-Change).
2. Overactive Bladder Questionnaire (OAB-q long form [OAB-q LF], 1-week recall) is a 33-item patient-administered, disease-specific questionnaire that includes a Health-Related QoL (HRQL) scale (25 items) and a Symptom Bother Scale (8 items). The HRQL is a multidomain concept that represents the patient's general perception of the effect of illness and treatment on physical, psychological, and social aspects of life. […] In the present study, the HRQL scale is divided into 4 subscales: Coping, Concern/Worry, Sleep, and Social Interaction. The Coping subscale (also referred to as the coping domain score) was a secondary endpoint, with items scored from 1 (none of the time) to 6 (all the time), with higher scores indicating better QoL. The HRQL total score is calculated by summating the individual HRQL subscale scores. The Symptom Bother Scale items are scored from 1 (not at all) to 6 (a very great deal), with higher Symptom Bother scores indicating greater symptom severity. The instrument was developed and validated in both continent and incontinent OAB patients, including both men and women.
With the exception of the symptom bother score, a responder was defined as having a change from baseline ≥10. For symptom bother score, a responder was defined as having a change from baseline […]. A higher proportion of patients represented a favorable response.

[2] = test system: men and women with overactive bladder; assay: extension study, OAB-q LF coping subscore at Week 52; details: for OAB-q LF Coping Subscore, Week 52 Mean: Full Analysis Set Extension; for OAB-q LF Coping Subscore, Change from Baseline Mean at Week 52: baseline from parent study
[3] = Phase 3 study (75 mg), heart rate and blood pressure changes
Text: Study assessments of safety included adverse events, physical examinations, vital signs (and weight), and clinical laboratory tests
Categorical changes are based on 3 consecutive post-baseline visits and patients are counted in all applicable categories (e.g., if a patient has a 12 unit increase then that patient is counted in both ≥5 and ≥10 unit columns).
Blood Pressure assessments are taken in triplicate and averaged at each visit.

[4] = Phase 3 study (75 mg), post-void residual urine volume (PVR)
Text: The risk of acute urinary retention or morbidities related to an increase in Post-Void Residual (PVR) is a concern with antimuscarinic therapy that promotes smooth muscle relaxation by inhibiting acetylcholine-induced smooth muscle contraction. If, during contraction, the bladder cannot generate enough pressure to overcome the outlet resistance in the urethra, either because of poor detrusor contractility or profound obstruction (most commonly from BPH), acute urinary retention or incomplete emptying of the bladder may result.
The volume of urine that remains in the bladder after voiding (PVR) is an objective measurement that may serve as a proxy for impaired ability to void.
PVR were performed via ultrasound at the visits indicated in the Schedule of Activities.

[5] = 50% Total Incontinence Responders, Week 12
[6] = Week 12, responder = change from baseline ≥10
[7] = 3 consecutive post-baseline visits
[8] = Males with medical history of BPH

Cc1ccc(O)c([C@H](CCN(C(C)C)C(C)C)c2ccccc2)c1 [Tolterodine ER, tolterodine, reference compound]
OAB-q Coping Subscore, Change from baseline at week 12, LS Means (SE) [1, 5]: 18.5 (1.49) | OAB-q Coping Subscore, Mean [1, 5]: 81.66 (20.882) | OAB-q Symptom Bother Subscore, Change from baseline at week 12, LS Means [1, 5]: −21.7 | OAB-q Symptom Bother Subscore, Mean [1, 5]: 24.70 | Change from Baseline in PGI-Control, LS Mean ([1]; 75% UUI Responders, Week 4): −0.7 (0.07) | PGI-Control, Mean (SD) ([1]; 75% UUI Responders, Week 4): 2.51 (0.907) | Change from Baseline in PGI-Control, LS Mean ([1]; 75% UUI Responders, Week 8): −1.0 (0.07) | PGI-Control, Mean (SD) ([1]; 75% UUI Responders, Week 8): 2.18 (0.861) | Change from Baseline in PGI-Control, LS Mean ([1]; 75% UUI Responders, Week 12): −1.1 (0.07) | OAB-q Coping Subscore, Change from baseline at week 12, LS Means (SE) ([1]; 75% UUI Responders, Week 12): 18.4 (1.73) | OAB-q Coping Subscore, Mean (SD) ([1]; 75% UUI Responders, Week 12): 83.05 (20.409) | OAB-q Symptom Bother Subscore, Change from Baseline at Week 12, LS Means (SE) ([1]; 75% UUI Responders, Week 12): −22.7 (1.60) | OAB-q Symptom Bother Subscore, Mean (SD) ([1]; 75% UUI Responders, Week 12): 22.59 (17.919) | PGI-Control, Mean (SD) ([1]; 75% UUI Responders, Week 12): 2.05 (0.862) | OAB-q Concern Subscore, Week 12 Mean (SD) ([1]; Week 12): 80.93 (21.467) | OAB-q Concern responders, Difference from Placebo ([1]; Week 12): 7.2 | OAB-q Concern, Active - Placebo LS Means Difference ([1]; Week 12): 4.4 | OAB-q Concern, change from baseline LS Means (SE) ([1]; Week 12): 14.7(1.32) | OAB-q Coping Score, Active - Placebo LS Means Difference ([1]; Week 12): 3.1 | OAB-q Coping Score, change from baseline LS Means (SE) ([1]; Week 12): 15.9 (1.39) | OAB-q Coping Sub score, Week 12 Mean (SD) ([1]; Week 12): 77.77 (23.439) | OAB-q Coping responders, Difference from Placebo ([1]; Week 12): 6.9 | OAB-q HRQL Total Score, Active - Placebo LS Means Difference ([1]; Week 12): 2.9 | OAB-q HRQL Total Score, change from baseline LS Means (SE) ([1]; Week 12): 13.6 (1.19) | OAB-q Sleep Subscore, Week 12 Mean (SD) ([1]; Week 12): 74.25 (23.140) | OAB-q Sleep responders, Difference from Placebo ([1]; Week 12): −0.5 | OAB-q Sleep, Active - Placebo LS Means Difference ([1]; Week 12): 2.6 | OAB-q Sleep, change from baseline LS Means (SE) ([1]; Week 12): 12.9 (1.42) | OAB-q Social Interaction Subscore, Week 12 Mean (SD) ([1]; Week 12): 88.35 (18.214) | OAB-q Social Interaction responders, Difference from Placebo ([1]; Week 12): 2.2 | OAB-q Social Interaction, Active - Placebo LS Means Difference ([1]; Week 12): 0.6 | OAB-q Social Interaction, change from baseline LS Means (SE) ([1]; Week 12): 9.4 (1.03) | OAB-q Symptom Bother Subscore, Week 12 Mean (SD) ([1]; Week 12): 29.33 (19.568) | OAB-q Symptom Bother responders, Difference from Placebo ([1]; Week 12): 8.2 | OAB-q Symptom Bother, Active - Placebo LS Means Difference ([1]; Week 12): −4.6 | OAB-q Symptom Bother, change from baseline LS Means (SE) ([1]; Week 12): −17.4 (1.31) | OAB-q Total HRQL Score, Week 12 Mean (SD) ([1]; Week 12): 80.07 (19.826) | OAB-q Total HRQL responders, Difference from Placebo ([1]; Week 12): 3.1 | OAB-q Symptom Bother responders, % ([1]; Week 12, responder = change from baseline ≤−10): (66.5) % | OAB-q Concern responders, % [1, 6]: (57.0) % | OAB-q Coping responders, % [1, 6]: (61.3) % | OAB-q Sleep responders, % [1, 6]: (51.3) % | OAB-q Social Interaction responders, % [1, 6]: (37.4) % | OAB-q Total HRQL responders, % [1, 6]: (51.8) % | OAB-q Concern responders, Odds Ratio ([1]; Week 12, vs placebo): 1.6 | OAB-q Coping responders, Odds Ratio ([1]; Week 12, vs placebo): 1.5 | OAB-q Sleep responders, Odds Ratio ([1]; Week 12, vs placebo): 1.1 | OAB-q Social Interaction responders, Odds Ratio ([1]; Week 12, vs placebo): 1.2 | OAB-q Symptom Bother responders, Odds Ratio ([1]; Week 12, vs placebo): 1.6 | OAB-q Total HRQL responders, Odds Ratio ([1]; Week 12, vs placebo, logistic regression): 1.3 | OAB-q LF Coping Subscore, Week 52 Mean ([2]; 40-Week treatment group): 82.5 | OAB-q LF Coping Subscore, Change from Baseline Mean at Week 52 ([2]; 40-Week treatment group): 24.7 | OAB-q LF Coping Subscore, Week 52 Mean ([2]; 52-Week treatment group): 81.8 | OAB-q LF Coping Subscore, Change from Baseline Mean at Week 52 ([2]; 52-Week treatment group): 22.1 | Diastolic BP categorical change from baseline ≥5 mm Hg, patients [3, 7]: 7.4% | Diastolic BP categorical change from baseline ≥10 mm Hg, patients [3, 7]: 2.1% | Diastolic BP categorical change from baseline ≥15 mm Hg, patients [3, 7]: 0.7% | Heart Rate categorical change from baseline ≥5 bpm, patients [3, 7]: 6.5% | Heart Rate categorical change from baseline ≥10 bpm, patients [3, 7]: 2.1% | Heart Rate categorical change from baseline ≥15 bpm, patients [3, 7]: 0.5% | Systolic BP categorical change from baseline ≥5 mm Hg, patients [3, 7]: 9.3% | Systolic BP categorical change from baseline ≥10 mm Hg, patients [3, 7]: 4.7% | Systolic BP categorical change from baseline ≥15 mm Hg, patients [3, 7]: 2.1% | Diastolic BP, 12-week change (95% CI) ([3]; Hypertensive at baseline): −1.3 (−3.8, +1.3) mm Hg | Heart Rate, 12-week change ([3]; Hypertensive at baseline): +1.5 beats/minute | Systolic BP, 12-week change (95% CI) ([3]; Hypertensive at baseline): −7.6 (−10.9, −4.3) mm Hg | Diastolic BP, 12-week change (95% CI) ([3]; Normotensive at baseline): +0.5 (−0.2, +1.3) mm Hg | Heart Rate, 12-week change ([3]; Normotensive at baseline): +0.2 beats/minute | Systolic BP, 12-week change (95% CI) ([3]; Normotensive at baseline): +1.0 (−0.1, +2.1) mm Hg | Diastolic BP, Mean Change from Baseline at Week 12 (SD) ([3]; Week 12, all patients): 0.3 (7.11) mm Hg | Heart Rate, Mean Change from Baseline at Week 12 ([3]; Week 12, all patients): 0.3 beats/minute | Systolic BP, Mean Change from Baseline at Week 12 ([3]; Week 12, all patients): 0.1 mm Hg | PVR category at Week 12 <100 mL, patients ([4]; Females): 94.4% | PVR category at Week 12 ≥100 mL to <200 mL, patients ([4]; Females): 5.3% | PVR category at Week 12 ≥200 mL to <350 mL, patients ([4]; Females): 0.3% | PVR category at Week 12 ≥350 mL, patients ([4]; Females): 0 | PVR, Mean Change from Baseline at Week 12 (SD) ([4]; Females): 1.9 (40.24) mL | PVR category at Week 12 <100 mL, patients ([4]; Males): 85.2% | PVR category at Week 12 ≥100 mL to <200 mL, patients ([4]; Males): 11.5% | PVR category at Week 12 ≥200 mL to <350 mL, patients ([4]; Males): 3.3% | PVR category at Week 12 ≥350 mL, patients ([4]; Males): 0 | PVR, Mean Change from Baseline at Week 12 (SD) ([4]; Males): 10.2 (44.24) mL | PVR category at Week 12 <100 mL, patients [4, 8]: 71.4% | PVR category at Week 12 ≥100 mL to <200 mL, patients [4, 8]: 28.6% | PVR category at Week 12 ≥200 mL to <350 mL, patients [4, 8]: 0% | PVR category at Week 12 ≥350 mL, patients [4, 8]: 0 | PVR, Mean Change from Baseline at Week 12 (SD) [4, 8]: 3.7 (50.64) mL | PVR category at Week 12 <100 mL, patients ([4]; all patients): 86.5% | PVR category at Week 12 ≥100 mL to <200 mL, patients ([4]; all patients): 5.8% | PVR category at Week 12 ≥200 mL to <350 mL, patients ([4]; all patients): 0.7% | PVR category at Week 12 ≥350 mL, patients ([4]; all patients): 0 | PVR, Mean Change from Baseline at Week 12 (SD) ([4]; all patients): 3.1 (40.93) mL
